Test results published in publication PMC10672842, “Anti-Trypanosoma cruzi Activity, Mutagenicity, Hepatocytotoxicity and Nitroreductase Enzyme Evaluation of 3-Nitrotriazole, 2-Nitroimidazole and Triazole Derivatives” (Molecules, 2023).
Like-named read-outs stand apart in the source and are kept apart here.

Tests used:
in vitro = type: cell-based; settings: human
Description: The Lactate Desidrogenase (LDH) Cytotoxicity Detection Kit^PLUS and the Cell Proliferation Reagent WST-1 assays were performed according to the manufacturer’s protocols. The human hepatocellular carcinoma cell line HepG2 was cultured in T25/175 cm^2 flasks with Dulbecco’s modified Eagle’s medium (DMEM, Gibco BRL) supplemented with 10% fetal bovine serum, 3.7 g/L sodium bicarbonate and 100 µg/mL penicillin–streptomycin under standard conditions (37 ± 1 °C, 95% relative humidity and 5% CO2). Cells were split using trypsin-EDTA (0.05%) with phenol red solution (Gibco BRL) and seeded in a 96-well flat-bottomed plate at a density of 1 × 10^4 cells/well. After overnight incubation, the cells were washed with 1X PBS, and the medium was replaced with different compound dilutions (0–5000 µM) in fresh medium (100 µL) followed by 24 h of incubation. DMSO 1% was used as the negative control, and Triton X-100 4% was used as the positive control. For the LDH assay, after treatment, 50 µL of supernatant from each well was transferred to a 96-well flat-bottomed plate, and 50 µL of freshly prepared reaction mixture was added to each well. After 10 min of incubation in the dark at room temperature, 25 µL of stop solution was added to each well, and the absorbance was measured at 492 nm on a microplate reader (Polaris, Celer, MG, Brazil). For the WST-1 assay, after exposure, the supernatant was replaced by 100 µL of WST-1 2% in fresh medium and incubated for 3 h in the dark under standard conditions. The absorbance was measured at 440 nm. […] For cytotoxicity assays, significant differences between the groups were analyzed by one-way ANOVA and Tukey’s post hoc tests (p < 0.01).

[1] = system: T. cruzi (Tulahuen strain); test: In vitro anti-T. cruzi evaluation in an intracellular model (trypomastigote and amastigote forms, L929 host cells, β-galactosidase readout); type: cell-based, Trypanosoma cruzi; settings: for IC50: Trypanosoma cruzi, TULAHUEN, L929, 96 h, read-out: IC50 T. cruzi; for SI: selectivity index, L929 cells vs T. cruzi
Description: Derivatives 5–10 were evaluated in vitro against T. cruzi in an intracellular model on the trypomastigote and amastigote forms of the parasite of the Tulahuen strain [20]. This model is interesting because it mimics the life cycle of the parasite, as both clinically relevant forms are present in the environment. The mammalian host cells used were fibroblasts from L929 mice.
This assay was performed as previously described by Buckner et al. (1996) using T. cruzi (Tulahuen strain), which expresses the β-galactosidase gene of Escherichia coli. Infectious trypomastigote forms were obtained by culturing fibroblast monolayers of L929 mice in RPMI-1640 medium (pH 7.2–7.4) without phenol red (Gibco BRL), containing 10% fetal bovine serum and 2 mM glutamine. For the bioassay, 4000 L929 cells in 80 µL of supplemented medium were added to each well of a 96-well microtiter plate. After overnight incubation, 40,000 trypomastigotes in 20 µL were added to the cells and incubated for 2 h. […] The medium was then replaced with compound solutions at 1.0 µg/mL in fresh medium (200 µL), and the plate was incubated for 96 h at 37 °C. After this period, 50 µL of chlorophenol D-galactopyranoside red (500 µM) in 0.5% Nonidet P40 was added to each well, and the plate was incubated for 18 h at 37 °C. After this, the absorbance was measured at 570 nm. Controls with uninfected cells and infected cells treated with benznidazole were performed in parallel. The results are expressed as the percentage of T. cruzi growth inhibition in cells tested with compost compared to infected and untreated cells. The tests were performed in triplicate.

[2] = system: T. cruzi nitroreductase enzyme (TcNTR); test: Kinetic assay with Trypanosoma cruzi nitroreductase enzyme (NADH oxidation); type: biochemical; settings: for Kobs Deriv./Kobs BZN 25 µM: 25 µM derivative; for Kobs Deriv./Kobs BZN 25 µM / Kobs Deriv./Kobs BZN 50 µM: ratio of mean Kobs to BZN; for Kobs Deriv./Kobs BZN 50 µM: 50 µM derivative
Description: To determine a potential mechanism of action, nitroazole derivatives 5, 6, 8 and 9 were evaluated as substrates of the T. cruzi nitroreductase enzyme (TcNTR) and compared to BZN, the reference prodrug (Table 2). The enzymatic activity was measured by monitoring the oxidation of NADH, the first substrate of the enzyme, via spectrophotometric assays. […] At a concentration of 25 µM, derivatives 5 and 8 were metabolized at rates 2.3 and 2.6 times higher than that of BZN, respectively. At 50 µM, the compounds presented metabolism rates 1.6 and 3.0 times higher than that of BZN, respectively.
The protocols for expressing, purifying and conducting kinetic analysis with the recombinant TcNTR enzyme were adapted from the methods originally developed by Shane Wilkinson, with certain modifications.
For the kinetics assays, it was prepared a 200 μL solution which included 50 mM Tris-Base at pH 7.5, with a constant concentration of both NADH (50 μM) and the substances 5, 6, 8, 9 or BZN. Specifically, two distinct fixed concentrations (25 and 50 μM) of the substances 5, 6, 8, 9 or BZN were tested. These prepared mixtures were then incubated for 5 min at room temperature. Subsequently, the reaction was initiated by adding NTR to achieve a final concentration of 10 μg/mL. The reaction rates were monitored using a Hitachi U-2900 spectrophotometer, measuring the consumption of the primary substrate, NADH (λ = 340 nm; ε = 6.220 M^−1 cm^−1), over a 2-min interval. The resulting data curves were analyzed through linear regression using OriginPro 2016 software. To evaluate the reaction rate (Kobs) obtained from the 25 and 50 μM concentrations of each substrate, comparisons were made with the reference values for BZN. Measurement errors were calculated using the formula: Error = Z × σ/√n, where ‘Z’ denotes the critical value, ‘σ’ represents the standard deviation and ‘n’ is the number of test measurements, which were performed at least in triplicate.

S. typhimurium TA1535 = settings: for Mutagenicity in the Ames test (verdict): TA1535, absence or presence of metabolic activation
[3] = Tulahuen strain, intracellular trypomastigote and amastigote forms in L929 fibroblasts, 96 h

| Compound | CC50 at 24 h (in vitro) | CC50 at 48 h (in vitro) | CC50 at 72 h (in vitro) | SI [1] | IF (induction factor) (S. typhimurium TA1535; TA1535, +S9, 0.5 µM) | revertant His+ colonies, mean ± SD (S. typhimurium TA1535; TA1535, +S9, 0.5 µM) | IF (induction factor) (S. typhimurium TA1535; TA1535, +S9, 5 µM) | revertant His+ colonies, mean ± SD (S. typhimurium TA1535; TA1535, +S9, 5 µM) | IF (induction factor) (S. typhimurium TA1535; TA1535, +S9, 50 µM) | revertant His+ colonies, mean ± SD (S. typhimurium TA1535; TA1535, +S9, 50 µM) | IF (induction factor) (S. typhimurium TA1535; TA1535, +S9, 500 µM) | revertant His+ colonies, mean ± SD (S. typhimurium TA1535; TA1535, +S9, 500 µM) | Mutagenicity in the Ames test (verdict) (S. typhimurium TA1535) | IF (induction factor) (S. typhimurium TA1535; TA1535, −S9, 0.5 µM) | revertant His+ colonies, mean ± SD (S. typhimurium TA1535; TA1535, −S9, 0.5 µM) | IF (induction factor) (S. typhimurium TA1535; TA1535, −S9, 5 µM) | revertant His+ colonies, mean ± SD (S. typhimurium TA1535; TA1535, −S9, 5 µM) | IF (induction factor) (S. typhimurium TA1535; TA1535, −S9, 50 µM) | revertant His+ colonies, mean ± SD (S. typhimurium TA1535; TA1535, −S9, 50 µM) | revertant His+ colonies, mean ± SD (S. typhimurium TA1535; TA1535, −S9, 500 µM) | other results |
| --- | --- | --- | --- | --- | --- | --- | --- | --- | --- | --- | --- | --- | --- | --- | --- | --- | --- | --- | --- | --- | --- |
| O=C(Cn1ccnc1[N+](=O)[O-])NCc1ccccc1 [BZN, benznidazole, reference compound] | > 500 µM | > 500 µM | > 500 µM | 1409 | 1.3 | 13 ± 1 | 1.6 | 17 ± 3 | 2.1 | 22 ± 3 | 2.9 | 31 ± 2 | mutagenic | 1.5 | 11 ± 2 | 1.5 | 11 ± 5 | 1.5 | 11 ± 1 | 18 ± 4 | IC50 [1]: 1.5 ± 0.4 µM; Kobs ([2]; 25 µM Derivative + 50 µM NADH): 0.36 µmol of oxidized NADH/min/mg TcNTR; Kobs ([2]; 50 µM Derivative + 50 µM NADH): 0.36 µmol of oxidized NADH/min/mg TcNTR; IF (induction factor) (S. typhimurium TA1535; TA1535, +S9, 5000 µM): 3.0; revertant His+ colonies, mean ± SD (S. typhimurium TA1535; TA1535, +S9, 5000 µM): 32 ± 4; IF (induction factor) (S. typhimurium TA1535; TA1535, −S9, 500 µM): 2.5; IF (induction factor) (S. typhimurium TA1535; TA1535, −S9, 5000 µM): 4.9; revertant His+ colonies, mean ± SD (S. typhimurium TA1535; TA1535, −S9, 5000 µM): 36 ± 5 |
| O=[N+]([O-])c1ncn(CC(O)c2ccc(F)cc2F)n1 (stereo not shown) [Compound 8, 1-(2,4-Difluorophenyl)-2-(3-nitro-1H-1,2,4-triazol-1-yl)ethanol] | > 500 µM | 426 ± 66 µM |  | 3077 | 1.0 | 11 ± 1 | 1.1 | 12 ± 4 | 1.3 | 14 ± 4 | 1.4 | 15 ± 5 | not mutagenic | 1.0 | 21 ± 2 | 1.0 | 26 ± 3 | 1.0 | 23 ± 6 | Cytotoxic | IC50 [1, 3]: 0.39 ± 0.01 µM; times more potent against T. cruzi than 9 ([1]; ratio of IC50 T. cruzi to 2-nitroimidazole 9): approximately 8; fold more potent against T. cruzi than BZN ([1]; ratio of IC50 T. cruzi to BZN): ~4; times more potent against T. cruzi than 5 ([1]; ratio of IC50 T. cruzi to carbonyl counterpart 5): more than 4; times more potent against T. cruzi than 10 ([1]; ratio of IC50 T. cruzi to triazole 10): more than 300; fold more selective than BZN ([1]; ratio of selectivity index to BZN): 2; consumption rate by TcNTR, times higher than that of 9 ([2]; 25 µM): 3.4; Kobs Deriv./Kobs BZN 25 µM [2]: 2.6; consumption rate by TcNTR, times higher than that of 5 ([2]; 50 µM): 1.8; Kobs Deriv./Kobs BZN 50 µM [2]: 3.0; IF (induction factor) (S. typhimurium TA1535; TA1535, +S9, 5000 µM): 1.4; revertant His+ colonies, mean ± SD (S. typhimurium TA1535; TA1535, +S9, 5000 µM): 15 ± 3 |
| O=[N+]([O-])c1nccn1CC(O)c1ccc(F)cc1F (stereo not shown) [Compound 9, 1-(2,4-Difluorophenyl)-2-(2-nitro-1H-imidazol-1-yl)ethanol] | > 500 µM | > 500 µM | > 500 µM | >131 | 1.3 | 14 ± 2 | 2.1 | 23 ± 1 | 2.2 | 24 ± 1 |  | Cytotoxic | mutagenic | 1.8 | 14 ± 1 | 1.8 | 14 ± 4 | 2.8 | 22 ± 1 | 16 ± 3 | IC50 [1, 3]: 3.05 ± 0.07 µM; times more potent against T. cruzi than 6 ([1]; ratio of IC50 T. cruzi to 2-nitroimidazole ketone 6): approximately 30; Kobs Deriv./Kobs BZN 25 µM [2]: 0.8; consumption rate by TcNTR, times higher than that of 6 ([2]; 50 µM): 4.9; Kobs Deriv./Kobs BZN 50 µM [2]: 1.2; IF (induction factor) (S. typhimurium TA1535; TA1535, −S9, 500 µM): 2.0; revertant His+ colonies, mean ± SD (S. typhimurium TA1535; TA1535, −S9, 5000 µM): Cytotoxic |
